From patent US8957064B2, “Fused pyrimidines” (Bayer Intellectual Property GmbH, priority 2009, dated 2015)

Assays:
[1] = molecular target: His-tagged human recombinant kinase full-length Akt1 (Homo sapiens (Human), UniProt P31749); assay: Akt1 kinase assay (Akt1 TR-FRET assay, Biological Assay 1.0); type: biochemical; details: 10 μM ATP, 1 μM biotinylated peptide substrate, 60 min at 22° C.
Description: Biological Assay 1.0: Akt1 Kinase Assay
Akt1 inhibitory activity of compounds of the present invention may be quantified employing the Akt1 TR-FRET assay as described in the following paragraphs. His-tagged human recombinant kinase full-length Akt1 expressed in insect cells was purchased form Invitrogen (part number PV 3599). As substrate for the kinase reaction the biotinylated peptide biotin-Ahx-KKLNRTLSFAEPG (C-terminus in amide form) was used which can be purchased e.g. from the company Biosynthan GmbH (Berlin-Buch, Germany).
(§1) For the assay 50 nl of a 100 fold concentrated solution of the test compound in DMSO was pipetted into a black low volume 384 well microtiter plate (Greiner Bio-One, Frickenhausen, Germany), 2 μl of a solution of Akt1 in assay buffer [50 mM TRIS/HCl pH 7.5, 5 mM MgCl2, 1 mM dithiothreitol, 0.02% (v/v) Triton X-100 (Sigma)] were added and the mixture was incubated for 15 min at 22° C. to allow prebinding of the test compounds to the enzyme before the start of the kinase reaction. Then the kinase reaction was started by the addition of 3 μl of a solution of adenosine-tri-phosphate (ATP, 16.7 μM=>final conc. in the 5 μl assay volume is 10 μM) and substrate (1.67 μM=>final conc. in the 5 μl assay volume is 1 μM) in assay buffer and the resulting mixture was incubated for a reaction time of 60 min at 22° C. The concentration of Akt1 in the assay was adjusted depending of the activity of the enzyme lot and was chosen appropriate to have the assay in the linear range, typical enzyme concentrations were in the range of about 0.05 ng/μl (final conc. in the 5 μl assay volume).
(§2) The reaction was stopped by the addition of 5 μl of a solution of HTRF detection reagents (200 nM streptavidine-XL665 [Cisbio] and 1.5 nM anti-phosho-Serine antibody [Millipore, cat. #35-001] and 0.75 nM LANCE Eu-W 1024 labeled anti-mouse IgG antibody [Perkin Elmer]) in an aqueous EDTA-solution (100 mM EDTA, 0.1% (w/v) bovine serum albumin in 50 mM HEPES/NaOH pH 7.5).
(§3) The resulting mixture was incubated 1 h at 22° C. to allow the binding of the biotinylated phosphorylated peptide to the streptavidine-XL665 and the antibodies. Subsequently the amount of phosphorylated substrate was evaluated by measurement of the resonance energy transfer from the anti-mouse-IgG-Eu-Chelate to the streptavidine-XL665. Therefore, the fluorescence emissions at 620 nm and 665 nm after excitation at 350 nm was measured in a HTRF reader, e.g. a Rubystar (BMG Labtechnologies, Offenburg, Germany) or a Viewlux (Perkin-Elmer). The ratio of the emissions at 665 nm and at […] was taken as the measure for the amount of phosphorylated substrate. The data were normalised (enzyme reaction without inhibitor=0% inhibition, all other assay components but no enzyme=100% inhibition).

[2] = molecular target: His-tagged human recombinant kinase full-length Akt2 activated by PDK1 (Homo sapiens (Human), UniProt P31751); assay: Akt2 kinase assay (Akt2 TR-FRET assay, Biological Assay 2.0); type: biochemical; details: 10 μM ATP, 1 μM biotinylated peptide substrate, 60 min at 22° C.
His-tagged human recombinant kinase full-length Akt2 activated by PDK1, sequence (P31751 whole entry): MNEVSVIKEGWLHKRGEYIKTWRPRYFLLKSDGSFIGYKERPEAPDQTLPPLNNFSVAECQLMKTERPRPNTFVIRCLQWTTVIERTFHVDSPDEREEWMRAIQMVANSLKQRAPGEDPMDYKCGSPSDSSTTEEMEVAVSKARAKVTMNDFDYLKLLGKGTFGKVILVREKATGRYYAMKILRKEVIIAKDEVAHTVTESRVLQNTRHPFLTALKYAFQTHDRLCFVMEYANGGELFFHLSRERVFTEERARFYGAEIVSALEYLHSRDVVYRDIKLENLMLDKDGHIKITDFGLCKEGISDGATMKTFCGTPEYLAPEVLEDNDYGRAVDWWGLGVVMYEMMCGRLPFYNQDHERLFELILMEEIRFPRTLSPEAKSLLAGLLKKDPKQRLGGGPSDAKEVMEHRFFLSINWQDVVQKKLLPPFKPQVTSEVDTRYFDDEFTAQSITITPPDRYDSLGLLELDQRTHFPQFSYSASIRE
Description: Biological Assay 2.0: Akt2 Kinase Assay
Akt2 inhibitory activity of compounds of the present invention was quantified employing the Akt2 TR-FRET assay as described in the following paragraphs.
His-tagged human recombinant kinase full-length Akt2 expressed in insect cells and activated by PDK1 was purchased form Invitrogen (part number PV 3975). As substrate for the kinase reaction the biotinylated peptide biotin-Ahx-KKLNRTLSFAEPG (C-terminus in amide form) was used which can be purchased e.g. from the company Biosynthan GmbH (Berlin-Buch, Germany).
as §1, with “Akt2” for “Akt1”, “0.2” for “0.05”
as §2
as §3, with “TR-FRET” for “HTRF”

His-tagged human recombinant kinase full-length Akt1, sequence (P31749 whole entry): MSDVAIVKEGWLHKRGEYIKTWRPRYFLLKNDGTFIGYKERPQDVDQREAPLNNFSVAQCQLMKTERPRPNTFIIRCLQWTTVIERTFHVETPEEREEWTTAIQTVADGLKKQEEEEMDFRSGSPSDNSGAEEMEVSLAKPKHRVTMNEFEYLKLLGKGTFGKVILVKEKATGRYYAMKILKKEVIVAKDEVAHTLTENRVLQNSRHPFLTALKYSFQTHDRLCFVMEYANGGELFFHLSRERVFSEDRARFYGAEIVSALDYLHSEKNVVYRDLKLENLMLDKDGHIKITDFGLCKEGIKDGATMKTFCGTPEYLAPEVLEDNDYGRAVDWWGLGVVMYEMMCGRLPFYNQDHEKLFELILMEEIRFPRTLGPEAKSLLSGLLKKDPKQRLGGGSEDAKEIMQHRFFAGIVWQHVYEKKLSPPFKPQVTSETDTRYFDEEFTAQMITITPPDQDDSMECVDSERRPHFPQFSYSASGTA

IC50 [1] [nM] | IC50 [2] [nM] | SMILES
157 | 1220 | c1ccc(-c2cn3ccnc3nc2-c2ccc(CN3CCC(c4nc5ccncc5[nH]4)CC3)cc2)cc1 [Example 6.0, 2-{1-[4-(6-phenyl-imidazo[1,2-a]pyrimidin-7-yl)-benzyl]-piperidin-4-yl}-3H-imidazo[4,5-c]pyridine]
56 | 607 | c1ccc(-c2cn3ccnc3nc2-c2ccc(CN3CCC(c4nc5cccnc5[nH]4)CC3)cc2)cc1 [Example 7.0, 2-{1-[4-(6-phenyl-imidazo[1,2-a]pyrimidin-7-yl)-benzyl]-piperidin-4-yl}-3H-imidazo[4,5-b]pyridine]
83 | 426 | N#Cc1ccc2nc(C3CCN(Cc4ccc(-c5nc6nccn6cc5-c5ccccc5)cc4)CC3)[nH]c2c1 [Example 9.0, 2-{1-[4-(6-Phenyl-imidazo[1,2-a]pyrimidin-7-yl)-benzyl]-piperidin-4-yl}-3H-benzimidazole-5-carbonitrile]
39 | 316 | N#Cc1ccc2nc(C3CCN(Cc4ccc(-c5nc6ccnn6cc5-c5ccccc5)cc4)CC3)[nH]c2c1 [Example 12.0, 2-{1-[4-(6-phenyl-pyrazolo[1,5-a]pyrimidin-5-yl)-benzyl]-piperidin-4-yl}-3H-benzimidazol-5-carbonitrile]
112 | 228 | Cc1nc2nc(-c3ccc(CN4CCC(c5nc6ccc(F)cc6[nH]5)CC4)cc3)c(-c3ccccc3)cn2n1 [Example 13.0, 5-{4-[4-(6-fluoro-1H-benzoimidazol-2-yl)-piperidin-1-ylmethyl]-phenyl}-2-methyl-6-phenyl-[1,2,4]triazolo[1,5-a]pyrimidine]
3000 | 5840 | Cc1nc2nc(-c3ccc(CN4CCC(c5nc6ccncc6[nH]5)CC4)cc3)c(-c3ccccc3)cn2n1 [Example 14.0, 5-{4-[4-(3H-imidazo[4,5-c]pyridin-2-yl)-piperidin-1-ylmethyl]-phenyl}-2-methyl-6-phenyl-[1,2,4]triazolo[1,5-a]pyrimidine]
42 | 1080 | c1ccc(-c2cn3nccc3nc2-c2ccc(CN3CCC(c4nc5cccnc5[nH]4)CC3)cc2)cc1 [Example 16.0, 2-{1-[4-(6-phenyl-pyrazolo[1,5-a]pyrimidin-5-yl)-benzyl]-piperidin-4-yl}-3H-imidazo[4,5-b]pyridine]
338 | > 20000 | FC(F)(F)c1ccc2nc(C3CCN(Cc4ccc(-c5nc6ccnn6cc5-c5ccccc5)cc4)CC3)[nH]c2c1 [Example 17.0, 6-phenyl-5-{4-[4-(6-trifluoromethyl-1H-benzimidazol-2-yl)piperidin-1-ylmethyl]-phenyl}-pyrazolo[1,5-a]pyrimidine]
42 | 1090 | Fc1ccc2nc(C3CCN(Cc4ccc(-c5nc6ccnn6cc5-c5ccccc5)cc4)CC3)[nH]c2c1 [Example 18.0, 5-{4-[4-(6-fluoro-1H-benzimidazol-2-yl)-piperidin-1-ylmethyl]-phenyl}-6-phenyl-pyrazolo[1,5-a]pyrimidine]
525 | 1010 | Cc1nc2nc(-c3ccc(CN4CCC(c5nc6ccc(C#N)cc6[nH]5)CC4)cc3)c(-c3ccccc3)cn2n1 [Example 20.0, 2-{1-[4-(2-methyl-6-phenyl-[1,2,4]triazolo[1,5-a]pyrimidin-5-yl)benzyl]-piperidin-4-yl}-3H-benzimidazole-5-carbonitrile]
1450 | 2500 | Cc1nc2nc(-c3ccc(CN4CCC(c5nc6ccc(C(F)(F)F)cc6[nH]5)CC4)cc3)c(-c3ccccc3)cn2n1 [Example 21.0, 2-methyl-6-phenyl-5-{4-[4-(6-trifluoromethyl-1H-benzimidazol-2-yl)-piperidin-1-ylmethyl]-phenyl}-[1,2,4]-triazolo[1,5-a]pyrimidine]

The remaining lines, values behind:

SMILES | IC50 [1] [nM] | IC50 [2] [nM]
Cc1nc2nc(-c3ccc(CN4CCC(c5n[nH]c(-c6ccccn6)n5)C4)cc3)c(-c3ccccc3)cn2n1 (racemic) [Example 24.0, (±)-2-methyl-6-phenyl-5-{4-[3-(5-pyridin-2-yl-1H-[1,2,4]triazol-3-yl)-pyrrolidin-1-ylmethyl]-phenyl}-[1,2,4]triazolo[1,5-a]pyrimidine] | 44 | 435
c1ccc(-c2cn3ccnc3nc2-c2ccc(CN3CC(c4nnc(-c5ccccn5)[nH]4)C3)cc2)cc1 [Example 1.0, 6-phenyl-7-(4-{[3-(5-pyridin-2-yl-1,2,4-triazol-3-yl)azetidin-1-yl]methyl}phenyl)imidazo[1,2-a]pyrimidine] | < 50 | < 500
Cc1nc2nc(-c3ccc(CN4CC(c5nnc(-c6ccccn6)[nH]5)C4)cc3)c(-c3ccccc3)cn2n1 [Example 2.0, 2-methyl-6-phenyl-5-(4-{[3-(5-pyridin-2-yl-1,2,4-triazol-3-yl)azetidin-1-yl]methyl}phenyl)[1,2,4]triazolo[1,5-a]pyrimidine] | 23 | 65
Fc1cnc2nc(-c3ccc(CN4CC(c5nnc(-c6ccccn6)[nH]5)C4)cc3)c(-c3ccccc3)cn12 [Example 4.0, 3-fluoro-6-phenyl-7-(4-{[3-(5-pyridin-2-yl-1,2,4-triazol-3-yl)azetidin-1-yl]methyl}phenyl)imidazo[1,2-a]pyrimidine] | < 50 | < 50
Clc1cnc2nc(-c3ccc(CN4CC(c5nnc(-c6ccccn6)[nH]5)C4)cc3)c(-c3ccccc3)cn12 [Example 5.0, 3-Chloro-6-phenyl-7-(4-{[3-(5-pyridin-2-yl-1,2,4-triazol-3-yl)azetidin-1-yl]methyl}phenyl)imidazo[1,2-a]pyrimidine] | 6 | 11
c1ccc(-c2cn3ccnc3nc2-c2ccc(CN3CCC(c4cnc5ccccc5n4)CC3)cc2)cc1 [Example 10.0, 2-{1-[4-(6-phenyl-imidazo[1,2-a]pyrimidin-7-yl)-benzyl]-piperidine-4-yl}-quinoxaline] | 4 | 9
Nc1ncnc2c1cnn2C1CCN(Cc2ccc(-c3nc4ccnn4cc3-c3ccccc3)cc2)CC1 [Example 19.0, 1-{1-[4-(6-phenyl-pyrazolo[1,5-a]pyrimidin-5-yl)-benzyl]-piperidin-4-yl}-1H-pyrazolo[3,4-d]pyrimidin-4-ylamine] | 25 | 332
CNc1nc2nc(-c3ccc(CN4CC(c5n[nH]c(-c6ccccn6)n5)C4)cc3)c(-c3ccccc3)cn2n1 [Example 43.0, methyl-(6-phenyl-5-{4-[3-(5-pyridin-2-yl-1H-[1,2,4]triazol-3-yl)azetidin-1-ylmethyl]-phenyl}-[1,2,4]triazolo[1,5-a]pyrimidin-2-yl)-amine] | 63 | –
